Results from the kinase profiling compilation of Christmann-Franck et al. (2016).

Tests used:
Experiment in all cases: radiometric filter-binding kinase assay
MAP3K9 (human) = MAP3K9 (human) (UniProt P80192)
MAPK1 (human) = MAPK1 (human) (UniProt P28482)
CDK2 CCNA2 (human) = CDK2 CCNA2 (human) (UniProt P20248+P24941)
MARK4 (human) = MARK4 (human) (UniProt Q96L34)
PRKAA1 or PRKAA2 (rat) = settings: accession and sequence are those of the human protein
AURKB (human) = AURKB (human) (UniProt Q96GD4)
MELK (human) = MELK (human) (UniProt Q14680)
RPS6KA1 KD1 KD2 (human) = RPS6KA1 KD1 KD2 (human) (UniProt Q15418)
FGFR1 (human) = FGFR1 (human) (UniProt P11362)
ERBB4 (human) = ERBB4 (human) (UniProt Q15303)
IKBKB (human) = IKBKB (human) (UniProt O14920)
MKNK1 (human) = MKNK1 (human) (UniProt Q9BUB5)
[1] = molecular target: STK11 CAB39 STRADA (human) (UniProt Q9Y376+Q7RTN6+Q15831)
NTRK1 (human) = NTRK1 (human) (UniProt P04629)
CHEK2 (human) = CHEK2 (human) (UniProt O96017)
DAPK1 (human) = DAPK1 (human) (UniProt P53355)
PHKG1 (human) = PHKG1 (human) (UniProt Q16816)
SRC (human) = SRC (human) (UniProt P12931)
MYLK (human) = MYLK (human) (UniProt Q15746)
ROCK2 (rat) = settings: accession and sequence are those of the human protein
GSK3B (human) = GSK3B (human) (UniProt P49841)
LCK (mouse) = settings: accession and sequence are those of the human protein
MINK1 (human) = MINK1 (human) (UniProt Q8N4C8)
EPHB3 (human) = EPHB3 (human) (UniProt P54753)
TTK (human) = TTK (human) (UniProt P33981)
CSK (human) = CSK (human) (UniProt P41240)
MKNK2 (human) = MKNK2 (human) (UniProt Q9HBH9)
MAPK13 (human) = MAPK13 (human) (UniProt O15264)
PRKCZ (human) = PRKCZ (human) (UniProt Q05513)
INSRR (human) = INSRR (human) (UniProt P14616)
EEF2K (human) = EEF2K (human) (UniProt O00418)
MAP2K2 (human) = MAP2K2 (human) (UniProt P36507)
PRKACA (human) = PRKACA (human) (UniProt P17612)
CSNK2A1 (human) = CSNK2A1 (human) (UniProt P68400)
MAPKAPK3 (human) = MAPKAPK3 (human) (UniProt Q16644)

INSRR (human), sequence (P14616 whole entry, looked up): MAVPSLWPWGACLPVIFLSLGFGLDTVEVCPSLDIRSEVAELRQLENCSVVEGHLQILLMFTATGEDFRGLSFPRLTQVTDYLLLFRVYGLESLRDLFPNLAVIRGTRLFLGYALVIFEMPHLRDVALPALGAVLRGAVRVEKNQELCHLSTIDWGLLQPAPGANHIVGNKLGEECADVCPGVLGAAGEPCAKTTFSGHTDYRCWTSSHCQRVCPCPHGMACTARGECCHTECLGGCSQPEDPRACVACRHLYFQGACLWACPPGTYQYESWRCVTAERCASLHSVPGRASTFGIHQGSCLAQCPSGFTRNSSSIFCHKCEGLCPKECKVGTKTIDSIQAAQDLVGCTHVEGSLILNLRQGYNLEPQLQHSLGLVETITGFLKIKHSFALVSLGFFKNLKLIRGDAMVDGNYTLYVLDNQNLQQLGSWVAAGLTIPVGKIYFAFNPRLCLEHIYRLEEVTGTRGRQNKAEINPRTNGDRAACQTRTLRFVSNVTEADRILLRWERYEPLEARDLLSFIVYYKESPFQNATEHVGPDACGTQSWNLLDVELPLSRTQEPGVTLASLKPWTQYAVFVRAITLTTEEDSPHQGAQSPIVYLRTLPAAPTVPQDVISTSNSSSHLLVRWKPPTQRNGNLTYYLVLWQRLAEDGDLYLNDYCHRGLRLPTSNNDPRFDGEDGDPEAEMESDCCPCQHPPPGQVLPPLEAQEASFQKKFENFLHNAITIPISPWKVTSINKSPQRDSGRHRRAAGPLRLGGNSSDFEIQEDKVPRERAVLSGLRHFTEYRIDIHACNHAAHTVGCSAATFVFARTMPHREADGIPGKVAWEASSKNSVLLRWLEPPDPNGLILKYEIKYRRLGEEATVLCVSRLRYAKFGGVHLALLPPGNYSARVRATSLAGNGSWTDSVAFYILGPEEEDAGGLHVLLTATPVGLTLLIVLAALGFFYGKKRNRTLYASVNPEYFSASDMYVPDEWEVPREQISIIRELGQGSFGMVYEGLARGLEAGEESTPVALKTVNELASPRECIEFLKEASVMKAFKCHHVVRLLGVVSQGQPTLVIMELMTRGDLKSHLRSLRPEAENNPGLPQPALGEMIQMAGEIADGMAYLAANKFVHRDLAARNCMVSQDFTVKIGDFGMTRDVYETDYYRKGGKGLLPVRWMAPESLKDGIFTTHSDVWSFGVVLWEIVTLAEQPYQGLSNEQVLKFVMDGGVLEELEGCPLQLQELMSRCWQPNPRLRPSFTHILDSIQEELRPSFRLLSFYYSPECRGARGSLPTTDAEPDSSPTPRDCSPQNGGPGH
PRKCZ (human), sequence (Q05513 whole entry, looked up): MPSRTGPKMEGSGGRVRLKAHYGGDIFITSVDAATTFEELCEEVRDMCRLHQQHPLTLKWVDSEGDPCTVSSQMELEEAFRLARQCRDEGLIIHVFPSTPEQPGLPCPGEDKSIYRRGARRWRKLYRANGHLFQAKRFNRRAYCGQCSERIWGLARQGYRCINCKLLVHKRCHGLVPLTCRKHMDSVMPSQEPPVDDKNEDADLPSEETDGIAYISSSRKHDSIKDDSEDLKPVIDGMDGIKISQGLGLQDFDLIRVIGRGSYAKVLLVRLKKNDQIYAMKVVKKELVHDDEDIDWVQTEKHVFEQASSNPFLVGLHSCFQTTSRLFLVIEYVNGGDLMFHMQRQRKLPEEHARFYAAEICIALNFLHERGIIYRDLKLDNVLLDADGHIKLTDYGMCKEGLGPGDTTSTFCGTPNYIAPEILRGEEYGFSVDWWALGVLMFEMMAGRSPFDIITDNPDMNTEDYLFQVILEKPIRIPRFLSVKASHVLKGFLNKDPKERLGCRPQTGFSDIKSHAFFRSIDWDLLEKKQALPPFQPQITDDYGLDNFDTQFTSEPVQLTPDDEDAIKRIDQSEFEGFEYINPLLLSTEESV
FGFR1 (human), sequence (P11362 whole entry, looked up): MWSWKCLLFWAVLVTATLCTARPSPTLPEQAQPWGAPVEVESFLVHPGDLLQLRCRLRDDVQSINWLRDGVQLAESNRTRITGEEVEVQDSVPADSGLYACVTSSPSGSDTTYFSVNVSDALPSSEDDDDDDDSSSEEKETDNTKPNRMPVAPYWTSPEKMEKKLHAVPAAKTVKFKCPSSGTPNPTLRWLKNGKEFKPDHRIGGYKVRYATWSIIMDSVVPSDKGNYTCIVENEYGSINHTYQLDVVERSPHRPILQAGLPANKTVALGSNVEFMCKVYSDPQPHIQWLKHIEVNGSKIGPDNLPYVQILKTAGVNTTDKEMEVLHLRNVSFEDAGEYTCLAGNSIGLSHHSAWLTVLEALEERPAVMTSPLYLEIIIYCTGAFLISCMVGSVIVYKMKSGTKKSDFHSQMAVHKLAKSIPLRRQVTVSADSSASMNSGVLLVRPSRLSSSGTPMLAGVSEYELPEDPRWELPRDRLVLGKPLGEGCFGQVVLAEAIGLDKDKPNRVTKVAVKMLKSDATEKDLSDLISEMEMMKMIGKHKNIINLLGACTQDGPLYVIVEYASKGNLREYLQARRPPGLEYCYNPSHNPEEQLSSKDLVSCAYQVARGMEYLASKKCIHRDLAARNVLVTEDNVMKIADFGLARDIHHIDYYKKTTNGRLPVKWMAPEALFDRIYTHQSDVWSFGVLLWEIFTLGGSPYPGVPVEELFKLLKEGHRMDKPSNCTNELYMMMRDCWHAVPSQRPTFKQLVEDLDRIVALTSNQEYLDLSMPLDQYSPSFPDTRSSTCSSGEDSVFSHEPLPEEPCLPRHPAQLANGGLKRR
GSK3B (human), sequence (P49841 whole entry, looked up): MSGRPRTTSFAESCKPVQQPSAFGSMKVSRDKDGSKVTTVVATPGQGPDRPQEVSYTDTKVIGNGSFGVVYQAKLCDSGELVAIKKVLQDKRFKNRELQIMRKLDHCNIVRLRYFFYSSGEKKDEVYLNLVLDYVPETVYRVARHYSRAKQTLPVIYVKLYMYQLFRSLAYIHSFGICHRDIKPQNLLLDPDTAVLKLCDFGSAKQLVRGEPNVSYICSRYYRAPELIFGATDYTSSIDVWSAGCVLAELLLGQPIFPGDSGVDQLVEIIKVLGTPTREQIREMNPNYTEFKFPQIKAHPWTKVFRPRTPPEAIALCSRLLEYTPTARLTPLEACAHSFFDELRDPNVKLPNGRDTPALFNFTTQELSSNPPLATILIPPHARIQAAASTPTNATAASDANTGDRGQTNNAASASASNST
CSK (human), sequence (P41240 whole entry, looked up): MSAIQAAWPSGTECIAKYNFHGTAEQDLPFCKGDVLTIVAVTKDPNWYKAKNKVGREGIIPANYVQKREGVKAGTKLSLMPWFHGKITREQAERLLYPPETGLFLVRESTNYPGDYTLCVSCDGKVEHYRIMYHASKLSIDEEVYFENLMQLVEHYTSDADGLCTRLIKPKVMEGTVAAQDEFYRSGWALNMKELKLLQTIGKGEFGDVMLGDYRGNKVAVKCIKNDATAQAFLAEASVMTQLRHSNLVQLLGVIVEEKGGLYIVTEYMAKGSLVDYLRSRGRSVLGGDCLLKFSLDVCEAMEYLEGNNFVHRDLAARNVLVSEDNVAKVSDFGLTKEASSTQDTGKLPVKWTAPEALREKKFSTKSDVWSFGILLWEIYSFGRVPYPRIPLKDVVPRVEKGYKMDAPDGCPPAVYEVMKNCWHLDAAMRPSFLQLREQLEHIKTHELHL
IKBKB (human), sequence (O14920 whole entry, looked up): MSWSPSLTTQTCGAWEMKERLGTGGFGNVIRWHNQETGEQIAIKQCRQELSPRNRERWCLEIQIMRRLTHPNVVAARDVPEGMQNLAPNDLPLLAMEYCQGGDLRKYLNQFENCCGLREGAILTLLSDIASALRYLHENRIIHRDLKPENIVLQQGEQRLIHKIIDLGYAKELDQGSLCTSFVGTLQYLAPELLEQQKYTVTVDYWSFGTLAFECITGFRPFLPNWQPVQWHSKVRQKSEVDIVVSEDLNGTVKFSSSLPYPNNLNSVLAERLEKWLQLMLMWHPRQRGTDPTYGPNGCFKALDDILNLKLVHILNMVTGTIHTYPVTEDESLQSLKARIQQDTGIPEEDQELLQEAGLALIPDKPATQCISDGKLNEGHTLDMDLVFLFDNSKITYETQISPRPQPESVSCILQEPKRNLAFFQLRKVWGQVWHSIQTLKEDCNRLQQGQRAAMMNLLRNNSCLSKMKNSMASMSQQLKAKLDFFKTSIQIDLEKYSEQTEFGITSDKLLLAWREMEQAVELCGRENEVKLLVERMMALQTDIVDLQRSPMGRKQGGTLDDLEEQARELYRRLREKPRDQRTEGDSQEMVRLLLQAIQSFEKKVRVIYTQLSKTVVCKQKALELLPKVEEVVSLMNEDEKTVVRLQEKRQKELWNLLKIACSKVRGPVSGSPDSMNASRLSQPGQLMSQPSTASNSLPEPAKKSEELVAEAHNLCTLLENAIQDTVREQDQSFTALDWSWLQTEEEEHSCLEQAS
MKNK2 (human), sequence (Q9HBH9 whole entry, looked up): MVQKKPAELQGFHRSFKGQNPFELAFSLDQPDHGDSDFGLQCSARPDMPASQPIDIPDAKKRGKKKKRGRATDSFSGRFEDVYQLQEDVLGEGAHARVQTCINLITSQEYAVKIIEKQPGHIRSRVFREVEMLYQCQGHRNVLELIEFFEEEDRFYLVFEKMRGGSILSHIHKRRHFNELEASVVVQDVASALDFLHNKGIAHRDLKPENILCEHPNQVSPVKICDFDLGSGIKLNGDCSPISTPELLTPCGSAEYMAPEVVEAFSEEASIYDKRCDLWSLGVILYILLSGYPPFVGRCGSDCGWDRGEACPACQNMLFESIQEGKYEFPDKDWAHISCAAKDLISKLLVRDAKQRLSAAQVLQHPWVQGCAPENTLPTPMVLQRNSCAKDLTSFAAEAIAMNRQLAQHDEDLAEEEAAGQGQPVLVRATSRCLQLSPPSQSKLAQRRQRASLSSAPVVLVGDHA

Structure (SMILES): CNC(=O)C1[C@H]2O[C@@](C)([C@@H]1N)n1c3ccccc3c3c4c(c5c6ccccc6n2c5c31)C(=O)NC4 (stereo partly drawn)
- residual activity (MAP3K9 (human); compound 0.01 µM): 3%
- residual activity (MAP3K9 (human); compound 0.1 µM): 2%
- residual activity (MAP3K9 (human); compound 1.0 µM): 2%
- residual activity (MAPK1 (human); compound 0.01 µM): 22%
- residual activity (MAPK1 (human); compound 0.1 µM): 6%
- residual activity (MAPK1 (human); compound 1.0 µM): 5%
- residual activity (CDK2 CCNA2 (human); compound 0.01 µM): 18%
- residual activity (CDK2 CCNA2 (human); compound 0.1 µM): 9%
- residual activity (CDK2 CCNA2 (human); compound 1.0 µM): 8%
- residual activity (MARK4 (human); compound 0.01 µM): 10%
- residual activity (MARK4 (human); compound 0.1 µM): 2%
- residual activity (MARK4 (human); compound 1.0 µM): 1%
- residual activity (PRKAA1 or PRKAA2 (rat); compound 0.01 µM): 6%
- residual activity (PRKAA1 or PRKAA2 (rat); compound 0.1 µM): 2%
- residual activity (PRKAA1 or PRKAA2 (rat); compound 1.0 µM): 1%
- residual activity (AURKB (human); compound 0.01 µM): 49%
- residual activity (AURKB (human); compound 0.1 µM): 46%
- residual activity (AURKB (human); compound 1.0 µM): 39%
- residual activity (MELK (human); compound 0.01 µM): 18%
- residual activity (MELK (human); compound 0.1 µM): 10%
- residual activity (MELK (human); compound 1.0 µM): 5%
- residual activity (RPS6KA1 KD1 KD2 (human); compound 0.01 µM): 9%
- residual activity (RPS6KA1 KD1 KD2 (human); compound 0.1 µM): 3%
- residual activity (RPS6KA1 KD1 KD2 (human); compound 1.0 µM): 1%
- residual activity (FGFR1 (human); compound 0.01 µM): 53%
- residual activity (FGFR1 (human); compound 0.1 µM): 22%
- residual activity (FGFR1 (human); compound 1.0 µM): 3%
- residual activity (ERBB4 (human); compound 0.01 µM): 96%
- residual activity (ERBB4 (human); compound 0.1 µM): 63%
- residual activity (ERBB4 (human); compound 1.0 µM): 14%
- residual activity (IKBKB (human); compound 0.01 µM): 75%
- residual activity (IKBKB (human); compound 0.1 µM): 24%
- residual activity (IKBKB (human); compound 1.0 µM): 6%
- residual activity (MKNK1 (human); compound 0.01 µM): 61%
- residual activity (MKNK1 (human); compound 0.1 µM): 16%
- residual activity (MKNK1 (human); compound 1.0 µM): 9%
- residual activity ([1]; compound 0.01 µM): 103%
- residual activity ([1]; compound 0.1 µM): 50%
- residual activity ([1]; compound 1.0 µM): 35%
- residual activity (NTRK1 (human); compound 0.01 µM): 5%
- residual activity (NTRK1 (human); compound 0.1 µM): 3%
- residual activity (NTRK1 (human); compound 1.0 µM): 2%
- residual activity (CHEK2 (human); compound 0.01 µM): 24%
- residual activity (CHEK2 (human); compound 0.1 µM): 5%
- residual activity (CHEK2 (human); compound 1.0 µM): 2%
- residual activity (DAPK1 (human); compound 0.01 µM): 51%
- residual activity (DAPK1 (human); compound 0.1 µM): 18%
- residual activity (DAPK1 (human); compound 1.0 µM): 4%
- residual activity (PHKG1 (human); compound 0.1 µM): 1%
- residual activity (PHKG1 (human); compound 1.0 µM): 1%
- residual activity (SRC (human); compound 0.01 µM): 78%
- residual activity (SRC (human); compound 0.1 µM): 19%
- residual activity (SRC (human); compound 1.0 µM): 6%
- residual activity (MYLK (human); compound 0.01 µM): 48%
- residual activity (MYLK (human); compound 0.1 µM): 4%
- residual activity (MYLK (human); compound 1.0 µM): 1%
- residual activity (ROCK2 (rat); compound 0.01 µM): 82%
- residual activity (ROCK2 (rat); compound 1.0 µM): 7%
- residual activity (GSK3B (human); compound 0.01 µM): 51%
- residual activity (GSK3B (human); compound 0.1 µM): 15%
- residual activity (GSK3B (human); compound 1.0 µM): 7%
- residual activity (LCK (mouse); compound 0.01 µM): 44%
- residual activity (LCK (mouse); compound 0.1 µM): 13%
- residual activity (LCK (mouse); compound 1.0 µM): 3%
- residual activity (MINK1 (human); compound 0.01 µM): 4%
- residual activity (MINK1 (human); compound 0.1 µM): 3%
- residual activity (MINK1 (human); compound 1.0 µM): 2%
- residual activity (EPHB3 (human); compound 0.01 µM): 106%
- residual activity (EPHB3 (human); compound 0.1 µM): 100%
- residual activity (EPHB3 (human); compound 1.0 µM): 83%
- residual activity (TTK (human); compound 0.01 µM): 37%
- residual activity (TTK (human); compound 0.1 µM): 13%
- residual activity (TTK (human); compound 1.0 µM): 7%
- residual activity (CSK (human); compound 0.01 µM): 112%
- residual activity (CSK (human); compound 0.1 µM): 73%
- residual activity (CSK (human); compound 1.0 µM): 20%
- residual activity (MKNK2 (human); compound 0.01 µM): 93%
- residual activity (MKNK2 (human); compound 0.1 µM): 12%
- residual activity (MKNK2 (human); compound 1.0 µM): 10%
- residual activity (MAPK13 (human); compound 0.01 µM): 100%
- residual activity (MAPK13 (human); compound 0.1 µM): 97%
- residual activity (MAPK13 (human); compound 1.0 µM): 48%
- residual activity (PRKCZ (human); compound 0.01 µM): 110%
- residual activity (PRKCZ (human); compound 0.1 µM): 56%
- residual activity (PRKCZ (human); compound 1.0 µM): 15%
- residual activity (INSRR (human); compound 0.01 µM): 47%
- residual activity (INSRR (human); compound 0.1 µM): 12%
- residual activity (INSRR (human); compound 1.0 µM): 9%
- residual activity (EEF2K (human); compound 0.01 µM): 105%
- residual activity (EEF2K (human); compound 0.1 µM): 97%
- residual activity (EEF2K (human); compound 1.0 µM): 79%
- residual activity (MAP2K2 (human); compound 0.01 µM): 32%
- residual activity (MAP2K2 (human); compound 0.1 µM): 17%
- residual activity (MAP2K2 (human); compound 1.0 µM): 14%
- residual activity (PRKACA (human); compound 0.01 µM): 29%
- residual activity (PRKACA (human); compound 0.1 µM): 5%
- residual activity (PRKACA (human); compound 1.0 µM): 2%
- residual activity (CSNK2A1 (human); compound 0.01 µM): 106%
- residual activity (CSNK2A1 (human); compound 0.1 µM): 108%
- residual activity (CSNK2A1 (human); compound 1.0 µM): 80%
- residual activity (MAPKAPK3 (human); compound 0.01 µM): 91%
- residual activity (MAPKAPK3 (human); compound 0.1 µM): 74%
- residual activity (MAPKAPK3 (human); compound 1.0 µM): 29%
